In patent US8158621B2, “Methods of treating or preventing autoimmune diseases with 2,4-pyrimidinediamine compounds” (Rigel Pharmaceuticals, Inc., priority 2002, dated 2012):

What was measured:
[1] = test system: cultured human mast cells (CHMC); experiment: CHMC low cell density IgE activation: tryptase assay; type: cell-based; details: low cell density; read-out: CHMC anti-IgE Tryptase
Method in brief: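 Low-density CHMC assay: donor-adjusted 1000-1500 cells/well, MT buffer, 1 hr 37° C preincubation; anti-IgE stimulus 30 min 37° C versus MT-only controls; supernatant tryptase by substrate, 30 min RT.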

[2] = test system: cultured human mast cells (CHMC); experiment: CHMC low cell density ionomycin activation: tryptase assay; type: cell-based; details: low cell density; read-out: CHMC Ionomycin Tryptase

| SMILES | IC50 [1] | IC50 [2] |
| --- | --- | --- |
| Cc1cccc(C)c1Nc1ncc(F)c(Nc2ccc3cc[nH]c3c2)n1 [Compound R927088] | 117 nM | > 10000 nM |
| COc1cc(Nc2ncc(F)c(Nc3ccc4cc[nH]c4c3)n2)cc(OC)c1 [Compound R927089] | 144 nM | > 10000 nM |
| COc1ccc(Nc2ncc(F)c(Nc3ccc4cc[nH]c4c3)n2)cc1Cl [Compound R927091] | 270 nM | > 10000 nM |
| CC(=O)Nc1cccc(Nc2nc(Nc3cc(C)cc(C)c3)ncc2F)n1 [Compound R927092] | 377 nM | > 10000 nM |
| CNC(=O)COc1cccc(Nc2ncc(F)c(Nc3cccc(NC(C)=O)n3)n2)c1 [Compound R927093] | 303 nM | > 10000 nM |
| CNC(=O)n1ccc2ccc(Nc3ncc(F)c(Nc4ccc(OC)c(Cl)c4)n3)cc21 [Compound R927094] | > 10000 nM | > 10000 nM |
| COc1cc(Nc2ncc(F)c(Nc3cccc(NC(C)=O)n3)n2)cc(OC)c1 [Compound R927096] | 402 nM | > 10000 nM |
| COc1ccc(Nc2ncc(F)c(Nc3ccc4c(c3)NC(=O)C(C)(C)O4)n2)cc1Cl [Compound R927097] | 163 nM | 847 nM |
| CNC(=O)Nc1cccc(Nc2nc(Nc3cc(C)cc(C)c3)ncc2F)n1 [Compound R927098] | 1530 nM | > 10000 nM |
| CNC(=O)n1ccc2ccc(Nc3nc(Nc4cc(C)cc(C)c4)ncc3F)cc21 [Compound R927099] | > 10000 nM | > 10000 nM |
| CNC(=O)n1ccc2ccc(Nc3nc(Nc4ccc(OC)c(Cl)c4)ncc3F)cc21 [Compound R927100] | 6200 nM | > 10000 nM |
| Cc1cc(Nc2ncc(F)c(Nc3ccc4c(c3)OCCO4)n2)cc(C)c1Cl [Compound R927117] | 614 nM | > 10000 nM |
| Cc1cc(Nc2ncc(F)c(Nc3ccc4c(c3)NC(=O)C(C)(C)O4)n2)cc(C)c1Cl [Compound R927118] | 65 nM | 3490 nM |
| OCCCn1ncc2cc(Nc3ncc(F)c(Nc4ccc(Cl)cc4)n3)ccc21 [Compound R935383] | 146 nM | > 10000 nM |
| Cn1ncc2ccc(Nc3ncc(F)c(Nc4ccc5c(c4)OCCO5)n3)cc21 [Compound R935392] | 204 nM | > 10000 nM |
| COc1ccc(Nc2nc(Nc3ccc4cn[nH]c4c3)ncc2F)cc1Cl [Compound R935408] | 137 nM | 9940 nM |
| CC1(C)Oc2ccc(Nc3ncc(F)c(Nc4ccc5[nH]ncc5c4)n3)cc2NC1=O [Compound R935438] | 414 nM | 23000 nM |
| CC1(C)Oc2ccc(Nc3ncc(F)c(Nc4ccc5cn[nH]c5c4)n3)cc2NC1=O [Compound R935440] | 176 nM | 88000 nM |
| Cn1cc2ccc(Nc3ncc(F)c(Nc4ccc(Cl)c(Cl)c4)n3)cc2n1 [Compound R935444] | 429 nM | > 10000 nM |
| Cn1cc2ccc(Nc3ncc(F)c(Nc4ccc5c(c4)NC(=O)C(C)(C)O5)n3)cc2n1 [Compound R935445] | 184 nM | 11000 nM |
| COc1ccc(Nc2nc(Nc3ccc4cn(C)nc4c3)ncc2F)cc1Cl [Compound R935446] | 395 nM | > 10000 nM |
| CCOC(=O)CCn1cc2cc(Nc3ncc(F)c(Nc4ccc(Cl)c(Cl)c4)n3)ccc2n1 [Compound R935447] | 511 nM | 4700 nM |
| CCOC(=O)CCn1cc2cc(Nc3ncc(F)c(Nc4ccc5c(c4)NC(=O)C(C)(C)O5)n3)ccc2n1 [Compound R935448] | 111 nM | 4300 nM |
| COc1cc(Nc2nc(Nc3ccc4cnn(C)c4c3)ncc2F)ccc1F [Compound R935449] | 372 nM | 7800 nM |
| COc1cc(Nc2nc(Nc3ccc4cn(C)nc4c3)ncc2F)ccc1F [Compound R935450] | 494 nM | > 10000 nM |
| CNC(=O)CCn1cc2cc(Nc3ncc(F)c(Nc4ccc(Cl)c(Cl)c4)n3)ccc2n1 [Compound R935452] | 213 nM | > 10000 nM |
